The values that follow are results of earlier work, collected in patent US20120322767A1, “FORMULATIONS OF BISPHOSPHONATES AND VITAMIN D SUIUTABLE FOR INTERMITTENT INTRAMUSCULAR AND SUBCUTANEOUS ADMINISTRATION” (priority 2009, published 2012).

The conditions of data set [1]: humans, ratio of urinary or plasma concentrations (AUC) after intravenous and oral administration.
For data set [2] the following is noted: man, oral, 100,000 IU, maintained for two months.

As to `O=P(O)(O)C(Cl)(Cl)P(=O)(O)O` [clodronate], the Oral bioavailability in data set [1] is 1-2%.
Turning to `NCCC(O)(P(=O)(O)O)P(=O)(O)O` [pamidronate], the Oral bioavailability in data set [1] was approximately 0.3%.
Turning to `CC(O)(P(=O)(O)O)P(=O)(O)O` [etidronate], in data set [1], the Oral bioavailability is listed as 3-7%.
Turning to vitamin D, in data set [2], the “Serum levels of calcidiol” value was more than 80 nM.
